Measurements from US6030969A, “5,6,7-trisubstituted-4-aminopyrido[2,3-D] pyrimidine compounds” (Abbott Laboratories, priority 1998, dated 2000).
Where a name gives a salt, the structure may show the parent alone.

What follows are compounds tested against adenosine kinase (Homo sapiens, UniProt P55263) (assay: Inhibition of adenosine kinase in vitro). Conditions: Table 1, read-out: IC50, Inhibition of Adenosine Kinase by Representative Compounds of the Invention.
Type: biochemical
Excerpt: The adenosine kinase to be inhibited can be located in vitro, in situ or in vivo. Where the adenosine kinase is located in vitro, adenosine kinase is contacted with the inhibitor compound, typically by adding the compound to an aqueous solution containing the enzyme, radiolabeled substrate adenosine, magnesium chloride and ATP. The enzyme can exist in intact cells or in isolated subcellular fractions containing the enzyme. The enzyme is then maintained in the presence of the inhibitor for a period of time and under suitable physiological conditions. Means for determining maintenance times are well known in the art and depend inter alia on the concentrations of enzyme and the physiological conditions. Suitable physiological conditions are those necessary to maintain adenosine kinase viability and include temperature, acidity, tonicity and the like. Inhibition of adenosine kinase can be performed, by example, according to standard procedures well known in the art (Yamada, et al., Comp. Biochem. Physiol. 1982, 71B: 367-372). […] In vitro adenosine kinase activity can be measured using any of the standard procedures well known in the art. By way of example, cells containing adenosine kinase, such as IMR-32 human neuroblastoma cells, are cultured in the presence and absence of an inhibitor. Inhibition is measured as the ability to inhibit phosphorylation of endogenous or externally applied ^14 C-adenosine by these cells. The cells can be intact or broken. The specificity of adenosine kinase inhibitory activity is determined by studying the effects of inhibitors on adenosine A1 and A2α receptor binding, adenosine deaminase activity and adenosine transport. Numerous inhibitor compounds of the present invention were tested in vitro and found to inhibit adenosine kinase activity.

adenosine kinase, sequence (P55263 whole entry): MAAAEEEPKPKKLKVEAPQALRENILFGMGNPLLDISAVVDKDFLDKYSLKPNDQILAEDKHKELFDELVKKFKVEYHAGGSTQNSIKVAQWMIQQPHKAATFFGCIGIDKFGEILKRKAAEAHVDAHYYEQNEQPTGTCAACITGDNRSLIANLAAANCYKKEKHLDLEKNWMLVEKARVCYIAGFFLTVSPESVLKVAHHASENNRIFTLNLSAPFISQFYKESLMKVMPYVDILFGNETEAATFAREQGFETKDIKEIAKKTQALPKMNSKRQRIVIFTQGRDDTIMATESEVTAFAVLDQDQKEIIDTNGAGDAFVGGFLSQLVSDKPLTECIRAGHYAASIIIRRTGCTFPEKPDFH

Q: With `CCCCCc1c(-c2ccc(N(C)C)cc2)nc2ncnc(N)c2c1-c1ccc(F)c(Br)c1` [Example 1, 4-amino-5-(3-bromo-4-fluorophenyl)-6-pentyl-7-(4-(dimethylamino)phenyl)pyrido[2,3-d]pyrimidine] as the compound, how does the IC50 read?
A: 80 nM

Q: Which IC50 does the source give for `CCc1c(-c2cccs2)nc2ncnc(N)c2c1-c1cccc(Br)c1` [Example 4, 4-amino-5-(3-bromophenyl)-6-ethyl-7-(thiophen-2-yl)pyrido[2,3-d]pyrimidine] here?
A: 3 nM

Q: Which IC50 does the source give for `COc1ccc(-c2c(-c3cccs3)nc3ncnc(N)c3c2-c2cccc(Br)c2)cc1OC` [Example 6, 4-amino-5-(3-bromophenyl)-6-(3,4-dimethoxyphenyl)-7-(thiophen-2-yl)pyrido[2,3-d]pyrimidine] here?
A: 1 nM

Q: With `CCOC(=O)Cc1c(-c2cccs2)nc2ncnc(N)c2c1-c1cccc(Br)c1` [Example 8, 4-amino-5-(3-bromophenyl)-6-ethoxycarbonylmethyl-7-(thiophen-2-yl)pyrido[2,3-d]pyrimidine hydrochloride] as the compound, how does the IC50 read?
A: 3 nM

Q: `COc1cccc(Cc2c(-c3cccs3)nc3ncnc(N)c3c2-c2cccc(Br)c2)c1` [Example 9, 4-amino-5-(3-bromophenyl)-6-(3-methoxyphenylmethyl)-7-(thiophen-2-yl)pyrido[2,3-d]pyrimidine hydrochloride] was tested. Which IC50 did it give?
A: 23 nM

Q: Which IC50 does the source give for `COc1ccc(-c2c(-c3cccs3)nc3ncnc(N)c3c2-c2cc(Br)cs2)cc1OC` [Example 11, 4-amino-5-(4-bromothiophen-2-y)-6-(3,4-dimethoxyphenyl)-7-(thiophen-2-yl)pyrido[2,3-d]pyrimidine hydrochloride] here?
A: 0.3 nM

Q: For `COc1ccc(-c2c(-c3cccs3)nc3ncnc(N)c3c2-c2cccc(Cl)c2)cc1OC` [Example 12, 4-amino-5-(3-chlorophenyl)-6-(3,4-dimethoxyphenyl)-7-(thiophen-2-yl)pyrido[2,3-d]pyrimidine hydrochloride], which IC50 is on record?
A: 1 nM

Q: Which IC50 does the source give for `COCCN(C)c1ccc(-c2nc3ncnc(N)c3c(-c3cc(Br)cs3)c2-c2ccc(OC)c(OC)c2)cc1.Cl` [Example 19, 4-amino-5-(4-bromothiophen-2-yl)-6-(3,4-dimethoxyphenyl)-7-(4-(N-methyl-N-(2-methoxyethyl)amino)phenyl)pyrido [2,3-d]pyrimidine hydrochloride] here?
A: 0.1 nM

Q: With `CC(C)c1ccc(-c2c(-c3ccc(N(C)C)cc3)nc3ncnc(N)c3c2-c2ccc(C(C)C)cc2)cc1` [Example 25, 4-amino-5,6-(bis-4-(2-propyl)phenyl)-7-(4-dimethylaminophenyl)pyrido[2.3-d]pyrimidine] as the compound, how does the IC50 read?
A: 4 nM

Q: With `COCCN(C)c1ccc(-c2nc3ncnc(N)c3c(-c3ccccc3)c2-c2ccccc2)cc1` [Example 26, 4-amino-5-phenyl-6-phenyl-7-(4-(N-methyl-N-(2-methoxyethyl)amino)phenyl)pyrido[2,3-d]pyrimidine hydrochloride] as the compound, how does the IC50 read?
A: 5 nM

Q: With `CN(C)c1ccc(-c2nc3ncnc(N)c3c(-c3ccccc3)c2-c2ccccc2)cc1.Cl.Cl` [Example 27, 4-amino-5,6-diphenyl-7-(4-dimethylaminophenyl)pyrido [2,3-d]pyrimidine dihydrochloride] as the compound, how does the IC50 read?
A: 9 nM

Q: `Nc1ncnc2nc(-c3ccc(N4CCOCC4)nc3)c(-c3ccc(F)cc3)c(-c3cccc(Br)c3)c12` [Example 39, 4-amino-5-(3-bromophenyl)-6-(4-fluorophenyl)-7-(6-morpholinyl-3-pyridinyl)pyrido[2,3-d]pyrimidine hydrochloride] was tested. Which IC50 did it give?
A: 5 nM

Q: `Nc1ncnc2nc(-c3ccc(N4CCOCC4)nc3)c(-c3ccccc3)c(-c3ccccc3)c12` [Example 40, 4-amino-5-phenyl-6-phenyl-7-(6-morpholinyl-3-pyridinyl)pyrido [2,3-d]pyrimidine hydrochloride] was tested. Which IC50 did it give?
A: 3 nM

Q: Which IC50 does the source give for `Nc1ncnc2nc(-c3ccc(N4CCOCC4)nc3)c(-c3ccccc3)c(-c3cccc(Br)c3)c12` [Example 41, 4-amino-5-(3-bromophenyl)-6-phenyl-7-(6-morpholinyl-3-pyridinyl)pyrido [2,3-d]pyrimidine hydrochloride] here?
A: 2 nM

What follows are compounds tested on male CF1 mice (hot plate analgesia) (assay: Mouse hot plate assay (hot plate test of analgesia)). Conditions: 30 μmol/kg i.p., thirty minutes after pretreatment, 55° C. hot plate; vehicle alone 72.76±10.51 seconds.
Type: in vivo
Description: The compounds of the invention were tested in vivo in the hot plate test of analgesia in mammals such as mice. […] Mouse Hot Plate Assay […] At the end of the pretreatment period, the mice are placed in an Omnitech Electronics Automated 16 Animal Hot Plate Analgesia Monitor (Columbus, Ohio; Model […]) in individual, 9.8×7.2×15.3 cm (l×w×h) plastic enclosures on top of a copper plate warmed to 55° C. […] sensors located near the top of each enclosure record beam crossings that occur as the mice jump off of the heated surface. Latency times for each jump are automatically recorded, and latency to both the first and tenth jumps are used for data analysis.

Q: With `COCCN(C)c1ccc(-c2nc3ncnc(N)c3c(-c3cc(Br)cs3)c2-c2ccc(OC)c(OC)c2)cc1.Cl` [Example 19, 4-amino-5-(4-bromothiophen-2-yl)-6-(3,4-dimethoxyphenyl)-7-(4-(N-methyl-N-(2-methoxyethyl)amino)phenyl)pyrido [2,3-d]pyrimidine hydrochloride] as the compound, how does the “latency to 10th jump” value read?
A: 142.13 s

Q: How did the “latency to 10th jump” value turn out when `CN(C)c1ccc(-c2nc3ncnc(N)c3c(-c3ccccc3)c2-c2ccccc2)cc1.Cl.Cl` [Example 27, 4-amino-5,6-diphenyl-7-(4-dimethylaminophenyl)pyrido [2,3-d]pyrimidine dihydrochloride] was run?
A: 154.86 s
